From ChEMBL document CHEMBL1201862, “PubChem BioAssay data set” (2004)
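Dose response: 5 concentrations. Exposure: 48 h. Format: 96-well plates. Endpoint: linear interpolation; highest concentration if not reached. Abbreviation: GI50, concentration required for 50% inhibition of growth.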 The source made the active and inactive calls. Cut-off read from the data, not from the text of the source: active = GI50 up to about 1.1 µM and inactive = higher.

Columns and labels:
Experiment in all cases: growth of human tumour cells (NCI), 48 h
[1] = test system: HL-60
[2] = test system: ACHN
[3] = test system: M14
[4] = test system: CCRF-CEM
[5] = test system: MDA-MB-231
[6] = test system: SK-OV-3
[7] = test system: EKVX
[8] = test system: A498
[9] = test system: MDA-N
[10] = test system: OVCAR-4
[11] = test system: SR
[12] = test system: A549
[13] = test system: U-251
[14] = test system: RPMI-8226
[15] = test system: SF-539
[16] = test system: NCI-H460
[17] = test system: SW-620
[18] = test system: NCI/ADR-RES
[19] = test system: COLO 205
[20] = test system: BT-549

Structure (SMILES) | GI50 [1] | GI50 [2] | GI50 [3] | GI50 [4] | GI50 [5] | GI50 [6] | GI50 [7] | GI50 [8] | GI50 [9] | GI50 [10] | GI50 [11] | GI50 [12] | GI50 [13] | GI50 [14] | GI50 [15] | GI50 [16] | GI50 [17] | GI50 [18] | GI50 [19] | GI50 [20]
CCOC(=O)/C(=C\NC(=S)Nc1ccc(Cl)c(Cl)c1)C(=O)c1ccccc1 | 22.8 µM (inactive) | 18.2 µM (inactive) | 27.3 µM (inactive) | 31.1 µM (inactive) | 25.9 µM (inactive) | 36.2 µM (inactive) | > 100 µM (inactive) | 3.94 µM (inactive) | 27.2 µM (inactive) | 41.5 µM (inactive) | 20.4 µM (inactive) | 43.1 µM (inactive) | 37.2 µM (inactive) | 5.12 µM (inactive) | 3.12 µM (inactive) | 42.1 µM (inactive) | 39.2 µM (inactive) | 33 µM (inactive) | 46 µM (inactive) | –
O=C(Nc1sccc1S(=O)(=O)c1ccc(Cl)cc1)c1ccc(Cl)cc1Cl | > 100 µM (inactive) | > 100 µM (inactive) | > 100 µM (inactive) | > 100 µM (inactive) | > 100 µM (inactive) | > 100 µM (inactive) | > 79.4 µM (inactive) | > 100 µM (inactive) | – | > 93.8 µM (inactive) | 12.1 µM (inactive) | > 95.7 µM (inactive) | > 78.7 µM (inactive) | 10.7 µM (inactive) | > 100 µM (inactive) | > 95.7 µM (inactive) | > 100 µM (inactive) | > 100 µM (inactive) | > 100 µM (inactive) | > 100 µM (inactive)
Sc1ncnc2nc[nH]c12 [MERCAPTOPURINE ANHYDROUS] | 2.44 µM (inactive) | 6.27 µM (inactive) | 0.675 µM (active) | 1.26 µM (inactive) | 24.4 µM (inactive) | 1.03 µM (active) | 263 µM (inactive) | 58.7 µM (inactive) | 1.78 µM (inactive) | 8.05 µM (inactive) | 1.24 µM (inactive) | 30.1 µM (inactive) | 13.7 µM (inactive) | 1.76 µM (inactive) | 2.49 µM (inactive) | 5.53 µM (inactive) | 6.38 µM (inactive) | 3.56 µM (inactive) | 4.94 µM (inactive) | –
Nc1sc2c(c1C(=O)c1ccc(Cl)c(Cl)c1)CCCC2 | 22.6 µM (inactive) | 67.3 µM (inactive) | 44.1 µM (inactive) | 26.4 µM (inactive) | > 100 µM (inactive) | > 100 µM (inactive) | 29.1 µM (inactive) | – | – | 28.7 µM (inactive) | 27.8 µM (inactive) | 51.9 µM (inactive) | 45 µM (inactive) | 17.8 µM (inactive) | 71.8 µM (inactive) | 40.1 µM (inactive) | 35.7 µM (inactive) | – | 32.3 µM (inactive) | 20.3 µM (inactive)
Cc1ccc(S(=O)(=O)NC2=NS(=O)(=O)c3cc(C)c(Cl)cc3S2)cc1 | > 100 µM (inactive) | > 100 µM (inactive) | 81.8 µM (inactive) | – | > 100 µM (inactive) | > 100 µM (inactive) | > 100 µM (inactive) | > 100 µM (inactive) | – | > 100 µM (inactive) | 63.4 µM (inactive) | > 100 µM (inactive) | > 100 µM (inactive) | > 100 µM (inactive) | 58.3 µM (inactive) | > 100 µM (inactive) | 71.6 µM (inactive) | > 100 µM (inactive) | > 100 µM (inactive) | > 100 µM (inactive)
CCOC(=O)Nc1cc2c(c(N)n1)N=C(c1ccc(OC)cc1)CN2 | 0.0015 µM (active) | 0.00104 µM (active) | 0.000309 µM (active) | 0.0016 µM (active) | – | 0.0385 µM (active) | 0.00104 µM (active) | 0.282 µM (active) | < 0.0001 µM (active) | 0.757 µM (active) | < 0.0001 µM (active) | 0.00258 µM (active) | < 0.0001 µM (active) | < 0.01 µM (active) | – | 0.00226 µM (active) | < 0.0001 µM (active) | 0.00126 µM (active) | 0.00986 µM (active) | < 0.01 µM (active)
c1ccc(C[P+]2(c3ccccc3)c3ccccc3-c3ccccc32)cc1 | > 100 µM (inactive) | – | > 100 µM (inactive) | > 100 µM (inactive) | > 100 µM (inactive) | > 100 µM (inactive) | > 100 µM (inactive) | – | > 100 µM (inactive) | – | – | > 100 µM (inactive) | – | > 100 µM (inactive) | > 100 µM (inactive) | – | > 100 µM (inactive) | – | > 100 µM (inactive) | > 100 µM (inactive)
N#CC(C#N)=c1[nH]c2cccc3c2-c2c(cccc2c3=C(C#N)C#N)[nH]1 | > 100 µM (inactive) | – | > 100 µM (inactive) | 45.1 µM (inactive) | – | > 100 µM (inactive) | > 100 µM (inactive) | > 100 µM (inactive) | – | > 100 µM (inactive) | > 100 µM (inactive) | > 100 µM (inactive) | > 100 µM (inactive) | > 100 µM (inactive) | > 100 µM (inactive) | > 100 µM (inactive) | > 100 µM (inactive) | – | > 100 µM (inactive) | –
COC(=O)CC1C[C@H](C#N)N(C(=O)c2ccccc2)C[C@@H]1CC[N+](=O)[O-] (some centres undefined) | > 100 µM (inactive) | > 100 µM (inactive) | > 100 µM (inactive) | > 100 µM (inactive) | – | > 100 µM (inactive) | > 100 µM (inactive) | > 100 µM (inactive) | – | > 100 µM (inactive) | > 100 µM (inactive) | > 100 µM (inactive) | > 100 µM (inactive) | > 100 µM (inactive) | > 100 µM (inactive) | > 100 µM (inactive) | > 100 µM (inactive) | – | > 100 µM (inactive) | –
CN(C)/C=N/c1nc2ncn(CCOC(=O)c3ccccc3)c2c(=O)[nH]1 | > 100 µM (inactive) | > 100 µM (inactive) | > 100 µM (inactive) | > 100 µM (inactive) | – | > 100 µM (inactive) | > 100 µM (inactive) | > 100 µM (inactive) | – | > 100 µM (inactive) | > 100 µM (inactive) | > 100 µM (inactive) | > 100 µM (inactive) | > 100 µM (inactive) | > 100 µM (inactive) | > 100 µM (inactive) | > 100 µM (inactive) | – | > 100 µM (inactive) | –
Cc1nnc(N/N=C2/C(=O)Nc3c(Cl)cc(Cl)cc32)n1N | > 100 µM (inactive) | > 100 µM (inactive) | > 100 µM (inactive) | 57.5 µM (inactive) | – | > 100 µM (inactive) | > 100 µM (inactive) | > 100 µM (inactive) | – | > 100 µM (inactive) | 73.8 µM (inactive) | > 100 µM (inactive) | > 100 µM (inactive) | > 100 µM (inactive) | > 100 µM (inactive) | > 100 µM (inactive) | > 100 µM (inactive) | – | > 100 µM (inactive) | –
O=C(c1ccc(Cl)cc1Cl)C1[C@H]2C(=O)N(c3ccc(Cc4ccc(N5C(=O)[C@@H]6ON(c7ccccc7)C(C(=O)c7ccc(Cl)cc7Cl)[C@@H]6C5=O)cc4)cc3)C(=O)[C@H]2ON1c1ccccc1 (some centres undefined) | > 50 µM (inactive) | > 50 µM (inactive) | > 50 µM (inactive) | > 50 µM (inactive) | – | > 50 µM (inactive) | – | > 50 µM (inactive) | – | > 50 µM (inactive) | > 50 µM (inactive) | > 50 µM (inactive) | > 50 µM (inactive) | > 50 µM (inactive) | > 50 µM (inactive) | > 50 µM (inactive) | > 50 µM (inactive) | – | > 50 µM (inactive) | –
COC(CN1C(=O)c2cccc3cccc(c23)C1=O)OC | 72.9 µM (inactive) | 41.5 µM (inactive) | > 100 µM (inactive) | 73.3 µM (inactive) | – | > 100 µM (inactive) | 49 µM (inactive) | 82.8 µM (inactive) | – | > 100 µM (inactive) | 40.5 µM (inactive) | 56.9 µM (inactive) | 42.4 µM (inactive) | 52.6 µM (inactive) | 57.7 µM (inactive) | 41.3 µM (inactive) | 91.8 µM (inactive) | – | > 100 µM (inactive) | –
CN(C)/C=C1\CCc2ccc([N+](=O)[O-])cc2C1=O | 25.7 µM (inactive) | > 100 µM (inactive) | 89.9 µM (inactive) | 19.8 µM (inactive) | 17.4 µM (inactive) | > 100 µM (inactive) | > 100 µM (inactive) | > 100 µM (inactive) | 19.2 µM (inactive) | 17.9 µM (inactive) | 31 µM (inactive) | > 100 µM (inactive) | 75.7 µM (inactive) | 27.4 µM (inactive) | – | 28.4 µM (inactive) | 32.1 µM (inactive) | 75 µM (inactive) | 25.5 µM (inactive) | –
Nc1nc(O)nc2sc3c(c12)CCCC3 | 88.5 µM (inactive) | > 100 µM (inactive) | 41.1 µM (inactive) | 41.3 µM (inactive) | 98.4 µM (inactive) | > 100 µM (inactive) | 7.48 µM (inactive) | – | – | 38.5 µM (inactive) | 51.5 µM (inactive) | 84.3 µM (inactive) | > 100 µM (inactive) | 38.5 µM (inactive) | 42.8 µM (inactive) | 56.4 µM (inactive) | > 100 µM (inactive) | > 100 µM (inactive) | 39.5 µM (inactive) | –
CN(C)CCNC(=O)Cn1ccc(=O)c2cc([N+](=O)[O-])ccc21 | > 100 µM (inactive) | > 100 µM (inactive) | > 100 µM (inactive) | > 100 µM (inactive) | – | > 100 µM (inactive) | > 100 µM (inactive) | > 100 µM (inactive) | > 100 µM (inactive) | – | > 100 µM (inactive) | > 100 µM (inactive) | > 100 µM (inactive) | > 100 µM (inactive) | > 100 µM (inactive) | > 100 µM (inactive) | > 100 µM (inactive) | > 100 µM (inactive) | > 100 µM (inactive) | –
